From ChEMBL document CHEMBL3507680, “University of Dundee, Gates Library screen for HepG2 cell viability”

assay: Human HepG2 cell viability assay in 384 well format; format: toxicity, cell-based; set-up: dose 125 nL, time 70.5 hour; concentration not given beside the values; conditions: HepG2 cells, read-out: Inhibition

Row | SMILES | cytotoxicity at 70.5 h [%]
1 | NC(=O)NCC1CCCCN1C(=O)c1ccc(Cl)s1 (stereo unspecified) | -8.02
2 | Cc1c(C(=O)NC2(C#N)CCSC2)nnn1-c1ccccc1Cl (stereo unspecified) | -5.68
3 | CC(NC(=O)NCCNc1cccc(F)c1C#N)c1nccs1 (stereo unspecified) | -2.26
4 | CN(C(=O)COCc1ccccc1)C1CCN(CC2CCOC2)CC1 (stereo unspecified) | -7.68
5 | CN1CCN(S(C)(=O)=O)c2ccc(F)cc21 | -11.1
6 | O=C(Nc1cc(C2CCOCC2)[nH]n1)c1ccc(Cl)cn1 | -1.48
7 | CC(C#N)CNS(=O)(=O)c1ccc(F)c(Br)c1 (stereo unspecified) | -7.42
8 | O=c1c2cccnc2cnn1CC(O)c1cccc(Cl)c1 (stereo unspecified) | 13.3
9 | N#CC1(NC(=O)c2ccn(-c3ccccc3Cl)n2)CCSC1 (stereo unspecified) | -10.3
10 | COc1ncnc(N(C)C)c1NC(=O)Cc1c[nH]c2ccc(F)cc12 | -7.3
11 | Cc1ccc(S(=O)(=O)NC(C)C#N)cc1Br (stereo unspecified) | -3.42
12 | COc1cc(F)c(S(=O)(=O)N2c3ncccc3NC(=O)C2C)cc1OC (stereo unspecified) | -5.44
13 | O=C(C[S+]([O-])Cc1ccc(Cl)cc1Cl)N1CCc2sccc2C1 (stereo unspecified) | -3.09
14 | O=C(Nc1cc(C2CCOCC2)[nH]n1)c1cc[nH]n1 | -4.17
15 | CCN(Cc1ccoc1)C(=O)c1cc(C)c(C)c(S(N)(=O)=O)c1 | -9.16
16 | CCc1ccc(C(=O)N(CC)Cc2ccoc2)cc1S(C)(=O)=O | -13.3
17 | Cc1nn(CC(C)C)c(N(C)C)c1CNCCCNS(C)(=O)=O | 31.6
18 | Cc1nc2ccc(C(=O)N(CCC#N)CCC#N)cc2nc1C | 11.6
19 | COCCOCC(=O)NC(C#N)c1cccc(Cl)c1Cl (stereo unspecified) | -6.94
20 | COCCOCC(=O)NC(C#N)c1ccccc1C (stereo unspecified) | -7.18
21 | O=C(NCCn1cccc1)C1CCCOC1 (stereo unspecified) | -5.7
22 | Cn1cc(Br)cc(NC(=O)Cc2cccs2)c1=O | 17.9
23 | O=C(NCCCNC(=O)C1CCC1)NCCn1cccc1 | -5.85
24 | O=C(NCCNC(=O)C1CCCCC1)NCCn1cccc1 | -4.89
25 | COc1ncc(Cl)c(NCc2ccc([S+](C)[O-])cc2)n1 (stereo unspecified) | -0.908

Row | SMILES | cytotoxicity at 70.5 h [%]
26 | CC1CCCN(C(=O)NCC(F)F)C1 (stereo unspecified) | -4.81
27 | COC1CCCN(C(=O)NCC(F)F)C1 (stereo unspecified) | -5.69
28 | CN(Cc1ncnn1C)c1ccnc(Cc2ccccc2)n1 | -2.06
29 | CCN(CC1CCOC1)C(=O)c1cc(OC)c2c(c1)OCCO2 (stereo unspecified) | 0.516
30 | CCN(CC1CCOC1)C(=O)c1cc(Cl)c2c(c1)OCO2 (stereo unspecified) | 26.7
31 | Cc1nn(CC(C)C)c(N(C)C)c1CNCCS(C)(=O)=O | 5.47
32 | CC(=O)N(Cc1ccsc1)c1ccccc1 | -7.44
33 | CN(Cc1ccccc1)CC(C)(C)NC(=O)c1cnns1 | -0.0616
34 | COCCOCC(=O)NC(C#N)c1c(F)cccc1Cl (stereo unspecified) | 20.7
35 | Cc1cc(C)cc(CN2CCCC2c2noc(C)n2)c1 (stereo unspecified) | 0.367
36 | CN(Cc1ccccc1)CC(C)(C)NC(=O)c1cnccn1 | -0.0333
37 | O=C(C1CCCN(Cc2ccccc2)C1)N1CCc2sccc2C1 (stereo unspecified) | 31
38 | Cc1nc(C2CCCN2Cc2cc(Cl)c3c(c2)OCO3)no1 (stereo unspecified) | -4.26
39 | CC(C)=CCS(=O)(=O)Cc1nc(C(C)C)no1 | -11.6
40 | Cc1nc2cc(C(=O)N(CCN(C)C)CCN(C)C)ccc2n1C | -7.57
41 | CN(C)c1nccc(N(C)Cc2ncnn2C)n1 | -3.04
42 | Cc1nc(CN2CCCN(C(=O)c3ccn(C)c(=O)c3)CC2)cs1 | 30.7
43 | CNC(=O)NC(C)c1nc(-c2ccccc2)c[nH]1 (stereo unspecified) | -3.67
44 | CN(CCC#N)C(=O)CN(C1CC1)C1CCc2ccccc21 (stereo unspecified) | 0.586
45 | Cc1nc(CCNC(=O)NC(C)c2ccc3c(c2)OCCO3)cs1 (stereo unspecified) | -3.72
46 | CC(NC(=O)CCS(=O)(=O)C1CCCC1)c1nc(-c2ccccc2)c[nH]1 (stereo unspecified) | -3.16
47 | COc1ccccc1CNC(=O)CNc1ccccc1C(C)=O | -1.58
48 | NC(=O)C1CCCN1C1CCN(C(=O)c2cccc3c2OCO3)CC1 (stereo unspecified) | -0.518
49 | CCOc1ccc(C(F)(F)F)cc1NC(=O)N1CCNC(=O)C1 | -1.6
50 | COCCN1CC(C(=O)Nc2ccc3c(c2)CCC(=O)N3C)CC1=O (stereo unspecified) | 0.117

Row | SMILES | cytotoxicity at 70.5 h [%]
51 | CC(C)(C)CC(=O)NS(=O)(=O)c1ccc(F)cc1C(F)(F)F | -1.73
52 | COCCS(=O)(=O)NC(C)c1ccccc1Cl (stereo unspecified) | -2.47
53 | O=C(CCN1CCOC1=O)N(Cc1ccncc1)CC1CCCO1 (stereo unspecified) | 4.43
54 | O=C(NCCC1CCN(CC(F)(F)F)CC1)C1COCCO1 (stereo unspecified) | 0.242
55 | CC(C)C1CN(C(=O)c2ccn(C)c(=O)c2)c2ccccc2N1 (stereo unspecified) | -0.488
56 | CCOc1ccc(C(F)(F)F)cc1NC(=O)N1CCC(C(N)=O)CC1 | -4.57
57 | O=C(Nc1cccn(Cc2ccc(F)cc2)c1=O)c1csnn1 | -0.164
58 | CC1CN(Cc2ccccc2)CCCN1CCS(C)(=O)=O (stereo unspecified) | -2.05
59 | Cc1n[nH]c(C2CN(Cc3csc(C4CC4)n3)CCO2)n1 (stereo unspecified) | -7.97
60 | CC(Nc1cccc(Oc2ccc(C#N)cn2)c1)C(=O)NC1CC1 (stereo unspecified) | -6.13
61 | Cc1nc(-c2ccc(Cl)s2)sc1C(=O)O | 1.47
62 | NC(=O)c1ccc(S(=O)(=O)NCCc2ccccn2)cc1 | 1.11
63 | CNC(=O)c1ccc(S(=O)(=O)NCCc2ccccn2)cc1 | 1.59
64 | CC(CN1CCOCC1)NC(=O)c1cccc2cn[nH]c12 (stereo unspecified) | -3.84
65 | c1ccc2sc(NCC3(N4CCOCC4)CCSC3)nc2c1 (stereo unspecified) | -4.14
66 | COc1ncccc1CNC(=O)C1CC(=O)N(C)C1 (stereo unspecified) | 0.32
67 | CC(NC(=O)c1ccc(CS(C)(=O)=O)o1)c1ccc(F)c(F)c1 (stereo unspecified) | -3.42
68 | Cc1ccc(NCc2ncc(C(C)(C)C)o2)c(Cl)c1 | 1.61
69 | Cc1cc(NCCS(C)(=O)=O)nc2ccccc12 | -1.98
70 | CS(=O)(=O)CCOCCNc1ccc(Br)cn1 | -3.34
71 | N#Cc1ccc(-c2nnc(CSCCN3CCOCC3)o2)cc1 | -5.77
72 | OC1CCN(Cc2ccc(CNc3ccc(Cl)cn3)cc2)CC1 | -0.577
73 | Cc1n[nH]c(C)c1CNC(=O)N(Cc1ccccc1)CC(C)(C)O | -3.61
74 | CNC(=O)c1c(C)cccc1NCc1nnc(C2CC2)o1 | -2.15
75 | Cc1cc(NCCCNS(C)(=O)=O)nc2ccccc12 | 2.5

Row | SMILES | cytotoxicity at 70.5 h [%]
76 | CCc1cnc(CCNC(=O)N2CCCC(c3ncc[nH]3)C2)s1 (stereo unspecified) | 1.32
77 | Cc1ncc(COc2cccc3c2NC(=O)CO3)s1 | 14.5
78 | Clc1ccccc1-c1nnc(CSCCN2CCOCC2)o1 | -2.19
79 | CC(C)c1nc(COc2cccc3c2NC(=O)CO3)cs1 | 13.8
80 | CCc1nnc2n1CCN(CC(O)CN1CCC(C)CC1)C2 (stereo unspecified) | 2.99
81 | CNC(=O)c1c(C)cccc1NCc1noc(C2CC2)n1 | -2.54
82 | CC(C)(C)c1cnc(CNc2cccc(Cn3cnnc3)c2)o1 | -2.54
83 | CCC(CC)CNCC1(S(C)(=O)=O)CCOCC1 | -3.95
84 | Cc1cnc(CNC(=O)N(Cc2ccccc2)CC(C)(C)O)s1 | -3.13
85 | Cc1nc(CNC(=O)N(Cc2ccccc2)CC(C)(C)O)oc1C | -3.06
86 | CCc1cnc(CNC(=O)N2CCCC(c3ncc[nH]3)C2)s1 (stereo unspecified) | -4.75
87 | CC(NCCN1CCC(N(C)C)CC1)c1ccc(Cl)s1 (stereo unspecified) | 14.9
88 | O=C(CN1CCOCC1CC(=O)c1ccco1)NCc1ccccn1 (stereo unspecified) | 2.07
89 | CC(C)NC(=O)CN(C1CC1)C(C)C1CC1 (stereo unspecified) | -3.55
90 | CSC(C)(C)CNC(=O)NCc1cccc(-n2ccnc2)c1 | -12.4
91 | Cc1ccccc1CN(C)CC(O)COCc1ccccc1Cl (stereo unspecified) | 21.6
92 | O=S(=O)(Cc1ccccc1)NCc1nnc2n1CCC2 | -22.1
93 | CC(=O)c1ccc(-n2c(C)cn(CCS(C)(=O)=O)c2=O)cc1 | -11.2
94 | CC(=O)c1ccc(-n2c(C)cn(CCC#N)c2=O)cc1 | 22.1
95 | Cc1cccc(N2CCN(C(=O)CCc3ccsc3)C(C)C2)n1 (stereo unspecified) | -23.2
96 | CN(Cc1nnc(C2CCC2)o1)C(C(N)=O)c1cccc(F)c1 (stereo unspecified) | -1.86
97 | Cc1cccc(N2CCN(C(=O)Cc3ccccc3O)C(C)C2)n1 (stereo unspecified) | -1.34
98 | COCCNC(=O)NCc1cccc(-n2ccnc2)c1 | -13.7
99 | CC(=O)c1c(F)cccc1NCC(O)C(C)(C)C (stereo unspecified) | -11.2
100 | O=C(Cn1cc(-n2cccc2)cn1)NCC1CCC1 | -10.7

Row | SMILES | cytotoxicity at 70.5 h [%]
101 | COCCCn1ccc(NS(=O)(=O)c2cc(F)c(C)cc2F)n1 | -12.2
102 | COc1cccc(CC(=O)NC2CCCc3cn[nH]c32)c1 (stereo unspecified) | -0.729
103 | O=S1(=O)CCN2C(=N1)Oc1ccc(Cl)cc12 | 23.7
104 | Cc1cccc(N2CCN(C(=O)CC3(O)CCCC3)C(C)C2)n1 (stereo unspecified) | 0.326
105 | Cc1ccc(CCCC(=O)N2CCCC(CS(N)(=O)=O)C2)s1 (stereo unspecified) | -5.56
106 | CC(C)(C#N)c1ccccc1CN(CCO)Cc1ccsc1 | -7.26
107 | CCOc1ccc(CN2C(=O)CC3(CCCC3)C2=O)nc1 | 17.6
108 | CCOc1ccc(CN2C(=O)CC(C)(C)C2=O)nc1 | 2.3
109 | O=C(CNC(=O)C1CC1)NCC1CCCC1 | 4.06
110 | CCC1CN(C(=O)COc2ccc(C(=O)NC3CC3)cc2)CCO1 (stereo unspecified) | -2.32
111 | CN(C)C(=O)C1CN(Cc2ccc(C#N)cc2F)c2ccccc2O1 (stereo unspecified) | -0.947
112 | CC(Cn1cccn1)NC(=O)NCCCN1CCc2ccccc2C1 (stereo unspecified) | 14.2
113 | CC(C)(C)OC(=O)N1CSC[C@@H]1C(=O)NCc1ccncc1 | -2.13
114 | CC(CC(=O)Nc1ncn(CC(=O)N2CCCCCC2)n1)C1CC1 (stereo unspecified) | 0.138
115 | CC(C)(C)CC(=O)N1CSCC1C(=O)NCc1cccc(C#N)c1 (stereo unspecified) | 15.4
116 | CCCSCC(=O)Nc1ncn(CC(=O)N2CCCCCC2)n1 | -1.09
117 | CCc1noc(CN(C)CCC(=O)Nc2ccc(Cl)cc2)n1 | -0.958
118 | CCn1c(CN2CCOC(Cn3cncn3)C2)nc2cc(F)ccc21 (stereo unspecified) | 0.647
119 | CCOc1cc(C(=O)NS(C)(=O)=O)cc(-c2ccccc2)c1OC | 0.968
120 | COc1ccc(S(=O)(=O)NCC(N)c2ccccc2)c(C)c1 (stereo unspecified) | -5.68
121 | NC(CC1CCCC1)c1ccccc1 (stereo unspecified) | 0.203
